{"source": "the kinase profiling compilation of Christmann-Franck et al. (2016)", "test_in_all_cases": "KINOMEscan competition binding", "details_in_all_cases": "compound 1.0 µM", "key": {"[1]": {"test_system": "ABL1 (human), P00519 [Y253F]"}, "[2]": {"molecular_target": "BMP2K (human) (UniProt Q9NSY1)"}, "[3]": {"molecular_target": "CDC42BPG (human) (UniProt Q6DT37)"}, "[4]": {"molecular_target": "CDK14 (human) (UniProt O94921)"}, "[5]": {"molecular_target": "CDK3 (human) (UniProt Q00526)"}, "[6]": {"molecular_target": "CDK4 CCND3 (human) (UniProt P11802+P30281)", "sequence (P11802 whole entry, looked up)": "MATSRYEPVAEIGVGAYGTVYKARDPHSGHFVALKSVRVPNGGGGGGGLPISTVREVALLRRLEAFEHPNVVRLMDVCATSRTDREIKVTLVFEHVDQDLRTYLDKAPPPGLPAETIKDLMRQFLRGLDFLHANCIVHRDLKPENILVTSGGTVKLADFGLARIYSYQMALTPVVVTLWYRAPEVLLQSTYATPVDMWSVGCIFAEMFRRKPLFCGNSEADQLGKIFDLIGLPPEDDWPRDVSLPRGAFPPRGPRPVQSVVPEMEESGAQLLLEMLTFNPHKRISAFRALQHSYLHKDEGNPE", "sequence (P30281 whole entry, looked up)": "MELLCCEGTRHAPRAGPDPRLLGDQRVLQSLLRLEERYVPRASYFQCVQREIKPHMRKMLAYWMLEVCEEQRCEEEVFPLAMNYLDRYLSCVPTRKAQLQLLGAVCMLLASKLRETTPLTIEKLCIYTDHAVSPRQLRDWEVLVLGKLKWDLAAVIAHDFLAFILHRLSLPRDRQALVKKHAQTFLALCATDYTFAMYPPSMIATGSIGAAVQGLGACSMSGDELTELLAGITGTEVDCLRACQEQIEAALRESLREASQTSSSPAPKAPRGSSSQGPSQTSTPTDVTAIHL"}, "[7]": {"molecular_target": "CHUK (human) (UniProt O15111)"}, "[8]": {"molecular_target": "CSNK2A2 (human) (UniProt P19784)", "sequence (P19784 whole entry, looked up)": "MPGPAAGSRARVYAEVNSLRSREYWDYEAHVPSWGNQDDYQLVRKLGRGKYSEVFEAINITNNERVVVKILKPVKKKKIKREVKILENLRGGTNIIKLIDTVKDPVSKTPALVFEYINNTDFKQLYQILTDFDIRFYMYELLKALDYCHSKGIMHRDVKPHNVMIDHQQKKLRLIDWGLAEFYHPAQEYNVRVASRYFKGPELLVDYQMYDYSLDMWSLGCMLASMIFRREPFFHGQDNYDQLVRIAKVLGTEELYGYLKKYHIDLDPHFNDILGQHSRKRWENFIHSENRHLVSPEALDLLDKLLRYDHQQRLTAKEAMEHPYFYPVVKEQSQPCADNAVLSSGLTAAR"}, "[9]": {"molecular_target": "CaMK1 (human) (UniProt Q14012)"}, "[10]": {"molecular_target": "DCLK3 (human) (UniProt Q9C098)"}, "[11]": {"molecular_target": "EPHB3 (human) (UniProt P54753)"}, "[12]": {"molecular_target": "ERBB4 (human) (UniProt Q15303)"}, "[13]": {"molecular_target": "ERN1 (human) (UniProt O75460)"}, "[14]": {"test_system": "FLT3 (human), P36888 [D835H]"}, "[15]": {"molecular_target": "FLT4 (human) (UniProt P35916)"}, "[16]": {"molecular_target": "GRK4 (human) (UniProt P32298)", "sequence (P32298 whole entry, looked up)": "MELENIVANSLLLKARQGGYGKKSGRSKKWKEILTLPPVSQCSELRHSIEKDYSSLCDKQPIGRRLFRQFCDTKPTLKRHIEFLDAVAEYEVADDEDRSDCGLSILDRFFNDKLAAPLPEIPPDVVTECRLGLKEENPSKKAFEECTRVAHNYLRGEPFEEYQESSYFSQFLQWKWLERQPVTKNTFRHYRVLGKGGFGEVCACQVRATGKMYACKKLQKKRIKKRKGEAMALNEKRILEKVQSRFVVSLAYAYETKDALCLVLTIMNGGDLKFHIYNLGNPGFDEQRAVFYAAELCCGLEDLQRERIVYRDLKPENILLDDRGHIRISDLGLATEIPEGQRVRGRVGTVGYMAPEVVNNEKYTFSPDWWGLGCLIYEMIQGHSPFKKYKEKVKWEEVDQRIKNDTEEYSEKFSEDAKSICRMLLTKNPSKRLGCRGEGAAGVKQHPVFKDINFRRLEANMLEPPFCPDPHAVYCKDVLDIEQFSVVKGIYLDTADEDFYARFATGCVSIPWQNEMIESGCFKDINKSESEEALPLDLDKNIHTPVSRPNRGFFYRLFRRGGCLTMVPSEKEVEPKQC"}, "[17]": {"molecular_target": "IGF1R (human) (UniProt P08069)"}, "[18]": {"molecular_target": "INSRR (human) (UniProt P14616)"}, "[19]": {"molecular_target": "LIMK2 (human) (UniProt P53671)"}, "[20]": {"molecular_target": "MAP3K11 (human) (UniProt Q16584)"}, "[21]": {"molecular_target": "MAPK10 (human) (UniProt P53779)"}, "[22]": {"molecular_target": "MAPK7 (human) (UniProt Q13164)"}, "[23]": {"molecular_target": "MERTK (human) (UniProt Q12866)"}, "[24]": {"molecular_target": "MINK1 (human) (UniProt Q8N4C8)", "sequence (Q8N4C8 whole entry, looked up)": "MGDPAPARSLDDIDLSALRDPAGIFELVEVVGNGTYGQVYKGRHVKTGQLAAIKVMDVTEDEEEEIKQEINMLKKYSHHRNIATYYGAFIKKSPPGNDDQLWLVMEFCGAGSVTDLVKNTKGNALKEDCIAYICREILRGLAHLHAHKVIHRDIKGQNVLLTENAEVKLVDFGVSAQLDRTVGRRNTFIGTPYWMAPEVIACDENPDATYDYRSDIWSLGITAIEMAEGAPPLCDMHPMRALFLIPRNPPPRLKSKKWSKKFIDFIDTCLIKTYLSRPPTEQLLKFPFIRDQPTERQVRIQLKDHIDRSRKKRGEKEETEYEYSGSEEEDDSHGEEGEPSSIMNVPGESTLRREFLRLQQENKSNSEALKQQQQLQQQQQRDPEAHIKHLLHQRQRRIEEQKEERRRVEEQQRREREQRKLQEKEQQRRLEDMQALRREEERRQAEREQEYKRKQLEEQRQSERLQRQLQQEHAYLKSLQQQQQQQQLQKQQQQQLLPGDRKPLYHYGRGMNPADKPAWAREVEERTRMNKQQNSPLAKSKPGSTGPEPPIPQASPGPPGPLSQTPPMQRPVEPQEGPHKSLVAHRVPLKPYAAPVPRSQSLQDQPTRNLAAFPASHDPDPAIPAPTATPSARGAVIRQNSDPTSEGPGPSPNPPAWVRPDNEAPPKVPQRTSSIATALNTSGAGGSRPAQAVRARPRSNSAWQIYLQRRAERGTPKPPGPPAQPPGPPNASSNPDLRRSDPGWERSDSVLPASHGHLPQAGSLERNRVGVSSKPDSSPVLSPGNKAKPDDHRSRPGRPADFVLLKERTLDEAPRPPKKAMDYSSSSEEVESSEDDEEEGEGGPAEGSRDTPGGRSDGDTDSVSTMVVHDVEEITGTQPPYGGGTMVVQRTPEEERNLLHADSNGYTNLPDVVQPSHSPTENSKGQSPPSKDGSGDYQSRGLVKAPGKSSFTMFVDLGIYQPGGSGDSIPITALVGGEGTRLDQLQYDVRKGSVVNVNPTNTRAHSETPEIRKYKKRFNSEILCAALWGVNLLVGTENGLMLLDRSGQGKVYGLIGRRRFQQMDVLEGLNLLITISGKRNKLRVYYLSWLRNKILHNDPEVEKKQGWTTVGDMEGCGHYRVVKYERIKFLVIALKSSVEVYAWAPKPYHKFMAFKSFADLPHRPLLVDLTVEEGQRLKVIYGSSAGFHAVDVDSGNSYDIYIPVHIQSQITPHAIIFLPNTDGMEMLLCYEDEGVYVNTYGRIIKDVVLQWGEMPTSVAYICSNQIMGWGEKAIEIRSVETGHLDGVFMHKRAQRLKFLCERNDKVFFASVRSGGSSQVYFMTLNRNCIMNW"}, "[25]": {"molecular_target": "MYLK4 (human) (UniProt Q86YV6)"}, "[26]": {"test_system": "PIK3CA (human), P42336 [H1047Y]"}, "[27]": {"molecular_target": "PRKCD (human) (UniProt Q05655)"}, "[28]": {"test_system": "RET (human), P07949 [V804L]"}, "[29]": {"molecular_target": "SIK1 (human) (UniProt P57059)"}, "[30]": {"molecular_target": "SNRK (human) (UniProt Q9NRH2)"}, "[31]": {"molecular_target": "SRPK1 (human) (UniProt Q96SB4)", "sequence (Q96SB4 whole entry, looked up)": "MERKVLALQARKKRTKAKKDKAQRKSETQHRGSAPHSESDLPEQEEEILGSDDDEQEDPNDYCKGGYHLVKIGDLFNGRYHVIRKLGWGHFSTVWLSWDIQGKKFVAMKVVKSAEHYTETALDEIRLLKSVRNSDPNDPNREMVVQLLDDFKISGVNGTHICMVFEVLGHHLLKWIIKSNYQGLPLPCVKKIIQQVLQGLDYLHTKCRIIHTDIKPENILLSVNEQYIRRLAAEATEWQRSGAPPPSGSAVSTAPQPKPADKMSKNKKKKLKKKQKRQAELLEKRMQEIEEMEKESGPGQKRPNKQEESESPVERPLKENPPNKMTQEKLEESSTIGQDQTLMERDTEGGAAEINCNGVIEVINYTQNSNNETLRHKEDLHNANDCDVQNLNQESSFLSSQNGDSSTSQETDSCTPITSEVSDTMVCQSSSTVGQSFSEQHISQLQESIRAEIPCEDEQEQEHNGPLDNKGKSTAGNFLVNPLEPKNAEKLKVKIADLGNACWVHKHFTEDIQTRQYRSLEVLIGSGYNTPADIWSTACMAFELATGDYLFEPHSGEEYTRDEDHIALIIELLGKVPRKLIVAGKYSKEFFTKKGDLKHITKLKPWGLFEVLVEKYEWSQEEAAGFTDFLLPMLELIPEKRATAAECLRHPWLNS"}, "[32]": {"molecular_target": "STK16 (human) (UniProt O75716)"}, "[33]": {"molecular_target": "STK36 (human) (UniProt Q9NRP7)"}, "[34]": {"molecular_target": "STK38L (human) (UniProt Q9Y2H1)"}, "[35]": {"molecular_target": "TGFBR1 (human) (UniProt P36897)"}, "[36]": {"molecular_target": "TNIK (human) (UniProt Q9UKE5)"}, "[37]": {"molecular_target": "TNK2 (human) (UniProt Q07912)", "sequence (Q07912 whole entry, looked up)": "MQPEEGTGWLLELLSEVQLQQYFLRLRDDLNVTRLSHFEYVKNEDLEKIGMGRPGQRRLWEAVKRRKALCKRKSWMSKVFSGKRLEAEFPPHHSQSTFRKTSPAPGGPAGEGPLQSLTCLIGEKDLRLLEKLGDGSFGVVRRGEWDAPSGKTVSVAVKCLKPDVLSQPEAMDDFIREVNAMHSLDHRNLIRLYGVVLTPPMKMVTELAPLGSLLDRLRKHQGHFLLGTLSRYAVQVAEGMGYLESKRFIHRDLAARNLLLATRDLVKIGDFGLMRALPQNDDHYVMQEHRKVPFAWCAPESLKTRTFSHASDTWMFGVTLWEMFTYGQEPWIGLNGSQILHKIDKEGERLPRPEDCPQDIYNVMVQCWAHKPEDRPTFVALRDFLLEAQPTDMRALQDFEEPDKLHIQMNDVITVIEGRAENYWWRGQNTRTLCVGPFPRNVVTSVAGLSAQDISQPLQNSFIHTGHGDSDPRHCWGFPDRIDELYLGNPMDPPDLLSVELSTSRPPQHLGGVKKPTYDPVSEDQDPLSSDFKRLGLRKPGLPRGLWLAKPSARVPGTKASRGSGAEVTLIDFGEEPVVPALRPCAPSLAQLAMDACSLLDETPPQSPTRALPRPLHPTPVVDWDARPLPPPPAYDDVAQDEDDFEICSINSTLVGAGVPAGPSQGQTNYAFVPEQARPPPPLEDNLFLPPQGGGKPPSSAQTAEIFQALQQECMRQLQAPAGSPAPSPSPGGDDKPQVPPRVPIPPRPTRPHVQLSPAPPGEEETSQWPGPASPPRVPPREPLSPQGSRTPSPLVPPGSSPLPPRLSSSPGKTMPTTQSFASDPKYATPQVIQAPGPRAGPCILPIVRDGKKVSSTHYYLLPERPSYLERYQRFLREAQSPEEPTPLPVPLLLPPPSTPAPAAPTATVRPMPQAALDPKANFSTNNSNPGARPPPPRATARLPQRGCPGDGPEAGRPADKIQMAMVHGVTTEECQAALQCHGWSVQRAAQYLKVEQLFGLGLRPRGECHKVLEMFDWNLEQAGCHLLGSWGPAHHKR"}, "[38]": {"molecular_target": "TYK2 JH1 catalytic (human) (UniProt P29597)"}, "[39]": {"molecular_target": "ULK3 (human) (UniProt Q6PHR2)", "sequence (Q6PHR2 whole entry, looked up)": "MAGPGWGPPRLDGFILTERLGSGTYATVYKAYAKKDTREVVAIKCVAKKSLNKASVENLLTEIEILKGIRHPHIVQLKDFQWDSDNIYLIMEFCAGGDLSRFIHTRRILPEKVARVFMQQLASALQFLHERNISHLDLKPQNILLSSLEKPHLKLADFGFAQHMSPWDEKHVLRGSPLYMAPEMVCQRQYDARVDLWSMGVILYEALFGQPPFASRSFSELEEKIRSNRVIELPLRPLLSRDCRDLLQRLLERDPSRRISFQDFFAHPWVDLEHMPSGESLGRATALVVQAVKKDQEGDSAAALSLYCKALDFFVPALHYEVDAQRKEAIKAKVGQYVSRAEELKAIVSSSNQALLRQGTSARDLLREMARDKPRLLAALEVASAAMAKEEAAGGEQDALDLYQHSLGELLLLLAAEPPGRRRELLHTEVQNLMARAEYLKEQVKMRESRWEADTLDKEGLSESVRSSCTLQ"}}}
{"smiles": "CNc1nc(Nc2ccc(C(=O)N3CCOCC3)cc2OC)ncc1Cl", "values": [{"measurement": "kinase still bound, per cent of control", "setting": "[1]", "result": 69, "unit": "%"}, {"measurement": "kinase still bound, per cent of control", "setting": "[2]", "result": 79, "unit": "%"}, {"measurement": "kinase still bound, per cent of control", "setting": "[3]", "result": 100, "unit": "%"}, {"measurement": "residual activity", "setting": "[4]", "result": 100, "unit": "%"}, {"measurement": "residual activity", "setting": "[5]", "result": 100, "unit": "%"}, {"measurement": "residual activity", "setting": "[6]", "result": 36, "unit": "%"}, {"measurement": "kinase still bound, per cent of control", "setting": "[7]", "result": 50, "unit": "%"}, {"measurement": "kinase still bound, per cent of control", "setting": "[8]", "result": 74, "unit": "%"}, {"measurement": "kinase still bound, per cent of control", "setting": "[9]", "result": 96, "unit": "%"}, {"measurement": "kinase still bound, per cent of control", "setting": "[10]", "result": 100, "unit": "%"}, {"measurement": "kinase still bound, per cent of control", "setting": "[11]", "result": 100, "unit": "%"}, {"measurement": "kinase still bound, per cent of control", "setting": "[12]", "result": 100, "unit": "%"}, {"measurement": "kinase still bound, per cent of control", "setting": "[13]", "result": 88, "unit": "%"}, {"measurement": "kinase still bound, per cent of control", "setting": "[14]", "result": 78, "unit": "%"}, {"measurement": "kinase still bound, per cent of control", "setting": "[15]", "result": 93, "unit": "%"}, {"measurement": "kinase still bound, per cent of control", "setting": "[16]", "result": 75, "unit": "%"}, {"measurement": "residual activity", "setting": "[17]", "result": 100, "unit": "%"}, {"measurement": "kinase still bound, per cent of control", "setting": "[18]", "result": 90, "unit": "%"}, {"measurement": "kinase still bound, per cent of control", "setting": "[19]", "result": 100, "unit": "%"}, {"measurement": "kinase still bound, per cent of control", "setting": "[20]", "result": 100, "unit": "%"}, {"measurement": "kinase still bound, per cent of control", "setting": "[21]", "result": 42, "unit": "%"}, {"measurement": "kinase still bound, per cent of control", "setting": "[22]", "result": 98, "unit": "%"}, {"measurement": "kinase still bound, per cent of control", "setting": "[23]", "result": 100, "unit": "%"}, {"measurement": "kinase still bound, per cent of control", "setting": "[24]", "result": 100, "unit": "%"}, {"measurement": "kinase still bound, per cent of control", "setting": "[25]", "result": 100, "unit": "%"}, {"measurement": "kinase still bound, per cent of control", "setting": "[26]", "result": 85, "unit": "%"}, {"measurement": "kinase still bound, per cent of control", "setting": "[27]", "result": 49, "unit": "%"}, {"measurement": "kinase still bound, per cent of control", "setting": "[28]", "result": 99, "unit": "%"}, {"measurement": "kinase still bound, per cent of control", "setting": "[29]", "result": 100, "unit": "%"}, {"measurement": "kinase still bound, per cent of control", "setting": "[30]", "result": 100, "unit": "%"}, {"measurement": "kinase still bound, per cent of control", "setting": "[31]", "result": 81, "unit": "%"}, {"measurement": "kinase still bound, per cent of control", "setting": "[32]", "result": 100, "unit": "%"}, {"measurement": "kinase still bound, per cent of control", "setting": "[33]", "result": 100, "unit": "%"}, {"measurement": "kinase still bound, per cent of control", "setting": "[34]", "result": 86, "unit": "%"}, {"measurement": "kinase still bound, per cent of control", "setting": "[35]", "result": 100, "unit": "%"}, {"measurement": "kinase still bound, per cent of control", "setting": "[36]", "result": 100, "unit": "%"}, {"measurement": "kinase still bound, per cent of control", "setting": "[37]", "result": 78, "unit": "%"}, {"measurement": "kinase still bound, per cent of control", "setting": "[38]", "result": 73, "unit": "%"}, {"measurement": "kinase still bound, per cent of control", "setting": "[39]", "result": 83, "unit": "%"}]}
